Data from patent US20070259872A1, “Inhibitors of soluble adenylate cyclase” (priority 2006, published 2007).

Target: soluble, sperm-specific adenylate cyclase (sAC) (Homo sapiens, UniProt Q96PN6)
Assay: sAC-Assay (HTRF cAMP detection)
Type: biochemical
Conditions: read-out: IC50 (inhibition of the soluble adenylate cyclase)
Description: In a suitable buffer system, the soluble, sperm-specific adenylate cyclase catalyzes the reaction of adenosine triphosphate (ATP) to cyclic adenosine monophosphate (cAMP) and pyrophosphate. Free cAMP that is generated in this way is then used in a competitive detection process, in which the binding of a europium kryptate (Eu[K])-labeled anti-cAMP antibody (anti cAMP-Eu[K]-AK) to a cAMP-molecule-labeled, modified allophycocyanine-1 molecule (cAMP-XL665) is prevented. In the absence of exogenic cAMP, after excitation at 335 nm, it results in a fluorescence resonance energy transfer (FRET) between the anti cAMP-Eu[K]-AK (FRET-donor) and the cAMP-XL665 molecule (FRET-acceptor). This process is quantified at different times (time-resolved) based on the emission of FRET-acceptor XL665 (665 nm and 620 nm). A signal drop (measured as a wave ratio; calculation formula: [(E665 nm/E620 nm)×10000]) can be attributed to the presence of cAMP and thus to the activity of sAC.
First, 1.5 μl of the test substance (in 30% DMSO), only 30% DMSO in the solvent controls, is introduced per recess in a 384-hole test plate (polystyrene; 384, NV). […]
After an additional incubation of 90 minutes at room temperature, the HTRF result is measured either on the Packard Discovery or with the RubiStar HTRF measuring device (Delay: 50 μs; Integration time: 400 μs).

Chain of soluble, sperm-specific adenylate cyclase (sAC) (Q96PN6 whole entry): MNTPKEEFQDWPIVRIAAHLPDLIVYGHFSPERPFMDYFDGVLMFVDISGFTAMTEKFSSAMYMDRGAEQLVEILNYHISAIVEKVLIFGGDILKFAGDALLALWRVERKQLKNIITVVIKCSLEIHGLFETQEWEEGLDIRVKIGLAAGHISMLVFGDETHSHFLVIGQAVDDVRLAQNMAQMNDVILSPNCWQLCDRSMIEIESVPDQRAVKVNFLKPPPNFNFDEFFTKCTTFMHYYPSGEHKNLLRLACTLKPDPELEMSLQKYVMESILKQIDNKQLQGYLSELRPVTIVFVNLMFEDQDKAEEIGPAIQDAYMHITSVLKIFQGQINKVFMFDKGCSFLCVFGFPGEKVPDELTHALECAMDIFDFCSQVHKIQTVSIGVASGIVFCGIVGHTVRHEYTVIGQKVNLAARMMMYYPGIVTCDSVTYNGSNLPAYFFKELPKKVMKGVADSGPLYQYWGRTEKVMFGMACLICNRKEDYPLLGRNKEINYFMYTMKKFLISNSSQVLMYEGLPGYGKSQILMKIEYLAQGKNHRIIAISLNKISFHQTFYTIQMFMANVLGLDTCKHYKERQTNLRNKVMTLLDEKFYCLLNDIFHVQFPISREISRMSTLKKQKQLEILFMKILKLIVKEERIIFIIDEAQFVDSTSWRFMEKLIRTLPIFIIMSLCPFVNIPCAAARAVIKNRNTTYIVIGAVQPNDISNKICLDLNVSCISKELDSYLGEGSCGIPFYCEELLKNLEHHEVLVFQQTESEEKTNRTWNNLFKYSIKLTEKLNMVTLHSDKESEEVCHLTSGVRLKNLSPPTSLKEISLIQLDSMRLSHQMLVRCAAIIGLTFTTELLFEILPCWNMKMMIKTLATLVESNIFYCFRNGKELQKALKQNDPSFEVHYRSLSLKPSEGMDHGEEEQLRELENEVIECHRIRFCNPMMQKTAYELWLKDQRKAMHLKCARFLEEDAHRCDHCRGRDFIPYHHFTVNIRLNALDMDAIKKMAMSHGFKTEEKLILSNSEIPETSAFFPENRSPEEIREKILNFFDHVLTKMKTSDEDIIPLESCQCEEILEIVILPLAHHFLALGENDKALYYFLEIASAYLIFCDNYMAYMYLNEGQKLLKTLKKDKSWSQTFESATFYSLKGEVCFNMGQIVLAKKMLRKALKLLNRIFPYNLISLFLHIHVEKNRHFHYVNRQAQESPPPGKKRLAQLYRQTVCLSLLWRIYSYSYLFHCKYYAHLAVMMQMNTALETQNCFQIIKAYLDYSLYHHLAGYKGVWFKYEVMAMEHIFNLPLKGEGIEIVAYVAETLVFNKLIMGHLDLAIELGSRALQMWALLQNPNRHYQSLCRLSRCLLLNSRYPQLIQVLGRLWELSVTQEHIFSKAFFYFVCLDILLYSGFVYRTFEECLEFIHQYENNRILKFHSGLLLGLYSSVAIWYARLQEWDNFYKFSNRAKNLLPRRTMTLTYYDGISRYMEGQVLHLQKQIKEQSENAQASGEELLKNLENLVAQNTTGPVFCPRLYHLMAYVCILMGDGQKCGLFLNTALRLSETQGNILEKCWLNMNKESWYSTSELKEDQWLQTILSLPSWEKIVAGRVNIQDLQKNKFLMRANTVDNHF

CC(C)(C)c1ccc(NS(=O)(=O)c2ccc3[nH]c(C(=O)NC4CCOCC4)c(-c4ccccc4)c3c2)cc1
IC50: 3000 nM

CC(O)CNC(=O)c1[nH]c2ccc(S(=O)(=O)Nc3ccc(C(C)(C)C)cc3)cc2c1-c1ccccc1 (racemic)
IC50: 1600 nM
